Laboratory results published in ChEMBL document CHEMBL4028884, “Discovery, Development, and Cellular Delivery of Potent and Selective Bicyclic Peptide Inhibitors of Grb7 Cancer Target” (J Med Chem, 2017).
Activity calls are given as the source filed them. No cut-off for these calls is given here. Where a SMILES comes first, the peptide text is derived from it. Bridges are numbered along the chain shown (N, C = ends). [ ]: non-standard residue; d: D form. Phe(4-COOH) = N[C@@H](Cc1ccc(C(=O)O)cc1)C(=O)O

Key:
[1] = molecular target: Growth factor receptor-bound protein 7 (Homo sapiens) (UniProt Q14451); test: Inhibition of GRB7-HER2 interaction in human SKBR3 cells assessed as HER2 detection in cell lysates at 20 uM preincubated for 1 hr followed by fibronectin stimulation measured after 10 mins by Western blot analysis; assay type: cell-based
Sequence of Growth factor receptor-bound protein 7 (Homo sapiens) (Q14451 whole entry, the tested form may be a part): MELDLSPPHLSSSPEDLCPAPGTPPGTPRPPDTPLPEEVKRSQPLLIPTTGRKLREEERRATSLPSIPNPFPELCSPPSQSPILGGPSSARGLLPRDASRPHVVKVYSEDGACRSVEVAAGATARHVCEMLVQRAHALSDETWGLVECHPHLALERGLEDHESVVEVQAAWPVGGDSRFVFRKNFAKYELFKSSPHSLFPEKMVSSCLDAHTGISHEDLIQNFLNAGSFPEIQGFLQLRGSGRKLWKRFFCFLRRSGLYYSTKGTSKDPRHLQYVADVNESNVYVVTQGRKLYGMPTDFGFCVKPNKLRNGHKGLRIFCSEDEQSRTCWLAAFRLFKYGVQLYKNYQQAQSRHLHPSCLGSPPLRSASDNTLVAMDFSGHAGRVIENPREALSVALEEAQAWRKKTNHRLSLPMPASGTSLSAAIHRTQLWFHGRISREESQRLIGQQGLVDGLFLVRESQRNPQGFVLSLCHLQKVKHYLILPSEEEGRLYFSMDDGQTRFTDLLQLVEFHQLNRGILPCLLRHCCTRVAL

[2] = molecular target: Growth factor receptor-bound protein 7 (Homo sapiens) (UniProt Q14451); test: Inhibition of GRB7-SHC interaction in human SKBR3 cells assessed as SHC detection in cell lysates at 20 uM preincubated for 1 hr followed by fibronectin stimulation measured after 10 mins by Western blot analysis; assay type: cell-based
[3] = molecular target: Growth factor receptor-bound protein 7 (Homo sapiens) (UniProt Q14451); test: Inhibition of GRB7-SHC interaction in human SKBR3 whole cells at 20 uM preincubated for 1 hr followed by fibronectin stimulation measured after 10 mins by Western blot analysis; assay type: cell-based
[4] = molecular target: Growth factor receptor-bound protein 7 (Homo sapiens) (UniProt Q14451); test: Inhibition of GRB7-FAK interaction in human SKBR3 cells assessed as FAK detection in cell lysates at 20 uM preincubated for 1 hr followed by fibronectin stimulation measured after 10 mins by Western blot analysis; assay type: cell-based
[5] = molecular target: Growth factor receptor-bound protein 7 (Homo sapiens) (UniProt Q14451); test: Inhibition of GRB7-HER2 interaction in human SKBR3 cells assessed as HER2 detection in whole cells at 20 uM preincubated for 1 hr followed by fibronectin stimulation measured after 10 mins by Western blot analysis; assay type: cell-based
[6] = molecular target: Growth factor receptor-bound protein 7 (Homo sapiens) (UniProt Q14451); test: Inhibition of GRB7-FAK interaction in human SKBR3 cells assessed as FAK detection in whole cells at 20 uM preincubated for 1 hr followed by fibronectin stimulation measured after 10 mins by Western blot analysis; assay type: cell-based
[7] = molecular target: Growth factor receptor-bound protein 2 (Homo sapiens) (UniProt P62993); test: Binding affinity to human GST-tagged GRB2-SH2 domain expressed in Escherichia coli BL21(DE3) pLys after 60 to 80 secs in presence of 50 mM phosphate buffer by SPR assay
Sequence of Growth factor receptor-bound protein 2 (Homo sapiens) (P62993 whole entry, looked up, the tested form may be a part): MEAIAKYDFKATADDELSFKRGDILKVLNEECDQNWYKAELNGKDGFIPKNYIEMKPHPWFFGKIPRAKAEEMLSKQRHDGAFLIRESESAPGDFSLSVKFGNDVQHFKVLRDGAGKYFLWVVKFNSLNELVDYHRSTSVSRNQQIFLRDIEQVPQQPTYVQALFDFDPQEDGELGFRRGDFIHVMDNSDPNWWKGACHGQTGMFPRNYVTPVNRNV

[8] = molecular target: T1, Growth factor receptor-bound protein 10 (Homo sapiens) (UniProt Q13322); test: Binding affinity to human GST-tagged GRB10-SH2 domain (471 to 532 residues) expressed in Escherichia coli BL21(DE3) pLys after 60 to 80 secs in presence of 50 mM phosphate buffer by SPR assay
T1 sequence (whole entry): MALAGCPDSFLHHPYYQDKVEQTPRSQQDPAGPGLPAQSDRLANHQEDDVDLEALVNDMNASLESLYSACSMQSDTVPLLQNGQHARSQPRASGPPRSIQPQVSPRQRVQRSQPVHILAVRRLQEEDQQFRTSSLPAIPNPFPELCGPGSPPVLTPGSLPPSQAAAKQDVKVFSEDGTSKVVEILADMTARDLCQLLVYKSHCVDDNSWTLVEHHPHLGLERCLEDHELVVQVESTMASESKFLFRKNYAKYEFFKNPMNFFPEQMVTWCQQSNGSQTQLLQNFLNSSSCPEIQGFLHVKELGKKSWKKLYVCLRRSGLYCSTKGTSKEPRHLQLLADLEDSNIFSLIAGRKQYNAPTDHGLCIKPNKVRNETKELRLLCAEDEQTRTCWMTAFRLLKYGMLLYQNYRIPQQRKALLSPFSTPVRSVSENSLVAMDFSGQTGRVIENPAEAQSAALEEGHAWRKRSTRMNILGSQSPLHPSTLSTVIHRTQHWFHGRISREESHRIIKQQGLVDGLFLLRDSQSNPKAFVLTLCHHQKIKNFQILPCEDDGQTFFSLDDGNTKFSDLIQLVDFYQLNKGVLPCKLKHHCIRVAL

[9] = molecular target: T1, Growth factor receptor-bound protein 10 (Homo sapiens); test: Binding affinity to human GST-tagged GRB10-SH2 domain (471 to 532 residues) expressed in Escherichia coli BL21(DE3) pLys after 60 to 80 secs in presence of 1 mM phosphate buffer by SPR assay
[10] = molecular target: Growth factor receptor-bound protein 2 (Homo sapiens) (UniProt P62993); test: Binding affinity to human GST-tagged GRB2-SH2 domain expressed in Escherichia coli BL21(DE3) pLys after 60 to 80 secs in presence of 1 mM phosphate buffer by SPR assay

For `CC[C@H](C)[C@H](NC(=O)[C@H](CCCCN)NC(=O)[C@@H](NC(=O)[C@H](CCC(N)=O)NC(=O)[C@H](CCCNC(=N)N)NC(=O)[C@@H]1CSCC(=O)N[C@H]2CCCCNC(=O)CC[C@H](NC(=O)[C@H](CC(N)=O)NC(=O)[C@H](CC(=O)O)NC(=O)[C@H](Cc3ccc(C(=O)O)cc3)NC(=O)CNC(=O)[C@H](CCC(=O)O)NC(=O)[C@H](Cc3ccccc3)NC2=O)C(=O)N1)[C@@H](C)CC)C(=O)N[C@@H](Cc1c[nH]c2ccccc12)C(=O)N[C@@H](Cc1ccccc1)C(=O)N[C@@H](CCC(N)=O)C(=O)N[C@@H](CC(N)=O)C(=O)N[C@@H](CCCNC(=N)N)C(=O)N[C@@H](CCCNC(=N)N)C(=O)N[C@@H](CCSC)C(=O)N[C@@H](CCCCN)C(=O)N[C@@H](Cc1c[nH]c2ccccc12)C(=O)N[C@@H](CCCCN)C(=O)N[C@@H](CCCCN)C(N)=O` ({CH2CO}-KFEG[Phe(4-COOH)]DNECRQIKIWFQNRRMKWKK-NH2; lactam 1-8; thioether N-9), the inhibition [1] was “Active”, the inhibition [2] was “Active” and the inhibition [3] was “Active”. The inhibition [4] was “Active”, the inhibition [5] was “Active” and the inhibition [6] was “Active”.

With `NC(=O)C[C@@H]1NC(=O)[C@H](CC(=O)O)NC(=O)[C@H](Cc2ccc(O)cc2)NC(=O)CNC(=O)[C@H](CCC(=O)O)NC(=O)[C@H](Cc2ccccc2)NC(=O)[C@@H]2COCc3cn(nn3)CCC[C@H](NC1=O)C(=O)N[C@H](C(N)=O)CSCC(=O)N2` the Activity [7] was “inactive”, the Activity [8] was “inactive” and the Activity [9] was “inactive”. For the same molecule, the Activity [10] was “inactive”.

In the case of `CC[C@H](C)[C@H](NC(=O)[C@H](CCCCN)NC(=O)[C@@H](NC(=O)[C@H](CCC(N)=O)NC(=O)[C@H](CCCNC(=N)N)NC(=O)[C@@H]1CSCC(=O)N[C@@H](Cc2c[nH]c3ccccc23)C(=O)N[C@@H](Cc2ccccc2)C(=O)N[C@@H](CCC(=O)O)C(=O)NCC(=O)N[C@@H](Cc2ccc(C(=O)O)cc2)C(=O)N[C@@H](CC(=O)O)C(=O)N[C@@H](CC(N)=O)C(=O)N[C@@H]([C@@H](C)O)C(=O)N[C@@H](Cc2ccccc2)C(=O)N2CCC[C@H]2C(=O)N1)[C@@H](C)CC)C(=O)N[C@@H](Cc1c[nH]c2ccccc12)C(=O)N[C@@H](Cc1ccccc1)C(=O)N[C@@H](CCC(N)=O)C(=O)N[C@@H](CC(N)=O)C(=O)N[C@@H](CCCNC(=N)N)C(=O)N[C@@H](CCCNC(=N)N)C(=O)N[C@@H](CCSC)C(=O)N[C@@H](CCCCN)C(=O)N[C@@H](Cc1c[nH]c2ccccc12)C(=O)N[C@@H](CCCCN)C(=O)N[C@@H](CCCCN)C(N)=O`, the inhibition [1] is reported as “Active”, the inhibition [2] is reported as “Active” and the inhibition [3] is reported as “Active”. The inhibition [4] was “Active”, the inhibition [5] was “Active” and the inhibition [6] was “Active”.

In the case of `NC(=O)C[C@@H]1NC(=O)[C@H](CC(=O)O)NC(=O)[C@H](Cc2ccc(O)cc2)NC(=O)CNC(=O)[C@H](CCC(=O)O)NC(=O)[C@H](Cc2ccccc2)NC(=O)[C@@H]2CCCCNC(=O)CC[C@H](NC1=O)C(=O)N[C@H](C(N)=O)CSCC(=O)N2` ({CH2CO}-KFEGYDNEC-NH2; lactam 1-8; thioether N-9), the Activity [7] is reported as “inactive”, the Activity [8] is reported as “inactive” and the Activity [9] is reported as “inactive”. For the same molecule, the Activity [10] was “inactive”.

For `NC(=O)C[C@@H]1NC(=O)[C@H](CC(=O)O)NC(=O)[C@H](Cc2ccc(O)cc2)NC(=O)CNC(=O)[C@H](CCC(=O)O)NC(=O)[C@H](Cc2ccccc2)NC(=O)[C@@H]2CCC(=O)NCCCC[C@H](NC1=O)C(=O)N[C@H](C(N)=O)CSCC(=O)N2` ({CH2CO}-EFEGYDNKC-NH2; lactam 1-8; thioether N-9), the Activity [7] was “inactive”, the Activity [8] was “inactive” and the Activity [9] was “inactive”. For the same molecule, the Activity [10] was “inactive”.

`CC[C@H](C)[C@H](NC(=O)[C@H](CCCCN)NC(=O)[C@@H](NC(=O)[C@H](CCC(N)=O)NC(=O)[C@H](CCCNC(=N)N)NC(=O)[C@@H]1CSCC(=O)N[C@H]2CCCCNC(=O)CC[C@H](NC(=O)[C@H](CC(N)=O)NC(=O)[C@H](CC(=O)O)NC(=O)[C@H](Cc3ccc(O)cc3)NC(=O)CNC(=O)[C@H](CCC(=O)O)NC(=O)[C@H](Cc3ccccc3)NC2=O)C(=O)N1)[C@@H](C)CC)C(=O)N[C@@H](Cc1c[nH]c2ccccc12)C(=O)N[C@@H](Cc1ccccc1)C(=O)N[C@@H](CCC(N)=O)C(=O)N[C@@H](CC(N)=O)C(=O)N[C@@H](CCCNC(=N)N)C(=O)N[C@@H](CCCNC(=N)N)C(=O)N[C@@H](CCSC)C(=O)N[C@@H](CCCCN)C(=O)N[C@@H](Cc1c[nH]c2ccccc12)C(=O)N[C@@H](CCCCN)C(=O)N[C@@H](CCCCN)C(N)=O` ({CH2CO}-KFEGYDNECRQIKIWFQNRRMKWKK-NH2; lactam 1-8; thioether N-9) was tested, and the inhibition [1] was “Active”, the inhibition [2] was “Active” and the inhibition [3] was “Active”. The inhibition [4] was “Active”, the inhibition [5] was “Active” and the inhibition [6] was “Active”.
